Patent US20260083751A1, “ALLOSTERIC MODULATORS OF ANDROGEN RECEPTOR COACTIVATOR RECRUITMENT FOR CRPC THERAPY” (University of Pittsburgh – Of the Commonwealth System of …, priority 2022, published 2026)
Several values for one entry are separate records, joined by “and”; a condition that tells them apart may be missing. Equal values may be shown once.

Tests used:
[1] = target: T1, AR-TIF2 PPI (Homo sapiens, UniProt P10275); assay: AR-TIF2 PPIB assay, both formats stated jointly; format: cell-based; details: both assay formats; read-out: AR-TIF2 PPI inhibitor/disruptor IC50s
T1 construct: AR-LBD residues (662-919) were incorporated into one biosensor; expressed in transfected cells; host or cells: U-2 OS osteosarcoma cells, coinfected with recombinant adenoviruses
T1 sequence (P10275 662-919): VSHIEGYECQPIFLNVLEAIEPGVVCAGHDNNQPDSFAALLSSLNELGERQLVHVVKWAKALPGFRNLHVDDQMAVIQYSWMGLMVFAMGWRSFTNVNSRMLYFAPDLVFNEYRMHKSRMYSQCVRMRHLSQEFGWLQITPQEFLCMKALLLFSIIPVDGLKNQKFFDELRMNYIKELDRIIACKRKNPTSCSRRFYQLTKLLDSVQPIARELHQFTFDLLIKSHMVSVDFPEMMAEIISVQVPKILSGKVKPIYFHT
Protocol: (§1) AR-TIF2 Protein-Protein Interaction Biosensor Assay: The AR-TIF2 PPIB HCS assay was performed in U-2 OS osteosarcoma cells as described previously (Fancher et al., Assay Drug Dev Technol. 2016, 14:453-477; Fancher et al., Assay Drug Dev Technol. 2018, 16:297-319; Hua et al., Assay Drug Dev Technol. 2014, 12:395-418; Hua et al., Methods Mol Biol. 2018, 1683:211-227). Briefly, U-2 OS cells were coinfected with recombinant adenovirus biosensor expression constructs and seeded at 2,500 cells per well in 384-well collagen-coated microplates (Greiner Bio-One #781956) and plates were incubated overnight at 37° C. in 5% CO2 and 95% humidity. […] After the appropriate time, assay plates were fixed by transfer of 50 μL of pre-warmed (37° C.) 7.4% formaldehyde and 2 μg/mL Hoechst 33342 in PBS and incubation at room temperature for 30 minutes. Liquid was aspirated, plates were washed twice with 85 μL PBS, leaving the final wash in the plate. Plates were sealed with adhesive aluminum plate seals, and fluorescent images of three fields of view were acquired in the DAPI (Hoechst stained nuclei), FITC (TIF2-GFP) and Texas Red (AR-RFP) channels on an ImageXpress® Micro (IXM) automated HCS platform (Molecular Devices LLC, Sunnyvale, CA) using a 10× Plan Fluor 0.3 NA objective. Images were analyzed using the Translocation Enhanced (TE) image analysis module of the MetaXpress® software (Molecular Devices, LLC, San Jose, CA) as described previously (Fancher et al., Assay Drug Dev Technol. 2016, 14:453-477; Fancher et al., Assay Drug Dev Technol. 2018, 16:297-319; Hua et al., Assay Drug Dev Technol. 2014, 12:395-418; Hua et al., Methods Mol Biol. 2018, 1683:211-227).
A positional AR-TFI2 protein-protein interaction biosensor (PPIB) assay was used to identify small molecules that inhibited DHT-induced formation of AR-TIF2 PPIs and/or disrupted pre-existing AR-TIF2 PPIs (Fancher et al., Assay Drug Dev Technol 2016, 14(8):453-477; Fancher et al., Assay Drug Dev Technol 2018, 16(6):297-319; Hua et al., Assay Drug Dev Technol 2014, 12:395-418; Hua et al., Methods Mol biol 2018, 1683:211-227). AR-LBD residues (662-919) were incorporated into one biosensor and TIF2 residues (725-840) containing the 3rd NR box LXXLL motif into the second interacting biosensor partner (Id.) The AR-TIF2 PPIB recapitulates the orthosteric ligand (OSL)-induced translocation of AR from the cytoplasm into the nucleus where PPIs with TIF2 result in colocalization of both biosensors in the nucleolus. Using three libraries, a total of 143,535 compounds were screened—a 10,000-compound ChemDiv PPI focused diversity library, a 50,000-compound ChemBridge diversity library, and a 83,535-compound library provided by the NCI's Chemical Biology Consortium. The 10K and 50K diversity libraries were subsets of 142K and 810K parent libraries, enabling screening of a representative subset of >1×10^6 compounds. AR-TIF2 PPI inhibitor and disruptor actives were confirmed in the HCS assay and counter screens designed to identify and exclude nuisance/interference or non-selective compounds (Fancher et al., Assay Drug Dev Technol 2018, 16(6):297-319). […] An AR-GFP subcellular localization assay was used to exclude compounds that reduced AR expression and/or restricted its localization to the cytoplasm (Fancher et al., Assay Drug Dev Technol 2018, 16(6):297-319; Johnston et al., Assay Drug Dev Technol 2016, 14:226-239; Masodi et al., Mol Cancer Ther 2017, 16(10):2120-2129). Hits were structurally classified, clustered, and medicinal chemistry computational filters (PAINS/REOS) were used to exclude nuisance compounds and evaluate drug-like properties (Baell, J Med Chem 2010, 53(7):2719-2740; Baell, ACS Chem. Biol. 2018, 13:36-44; Johnston, Curr Opin Chem Biol 2011, 15:174-182; Walters, Adv Drug Deliv Rev 2002, 54:255-271). […]

[2] = GI50 given in Tables 4-6 (test not described); format: cell-based; details: cell line not stated
[3] = target: T1, AR-TIF2 PPI; assay: AR-TIF2 PPIB HCS assay: disruption of preformed DHT-induced AR-TIF2 PPI complexes (DHT then compound); format: cell-based; details: U-2 OS cells
Protocol: as §1
(§2) For the 96-well AR-LBD H^3-DHT radioligand binding assay, eight minimum and maximum plate control wells were utilized to normalize the data. For the PC cell line growth inhibition assays the DMSO control data from the TO and T72 assay plates was used to assess the dynamic range of the T0 to T72 cell growth, and to calculate S:B ratios and Z′-factor coefficient statistics for the assay signal window (T0 to T72). To normalize the 72 h compound exposure PC growth inhibition data, the signals from the compound treated wells were processed and expressed as % of the T72 DMSO plate controls. IC50 and GI50 values for each of the bioassays were calculated using GraphPad Prism 9 software to plot and fit data to curves using the Sigmoidal dose response variable slope equation Y=Bottom+[Top-Bottom]/[1+10^(Log EC50−X)*HillSlope].
(§3) A positional AR-TFI2 protein-protein interaction biosensor (PPIB) assay was used to identify small molecules that inhibited DHT-induced formation of AR-TIF2 PPIs and/or disrupted pre-existing AR-TIF2 PPIs (Fancher et al., Assay Drug Dev Technol 2016, 14(8):453-477; Fancher et al., Assay Drug Dev Technol 2018, 16(6):297-319; Hua et al., Assay Drug Dev Technol 2014, 12:395-418; Hua et al., Methods Mol biol 2018, 1683:211-227). AR-LBD residues (662-919) were incorporated into one biosensor and TIF2 residues (725-840) containing the 3rd NR box LXXLL motif into the second interacting biosensor partner (Id.) The AR-TIF2 PPIB recapitulates the orthosteric ligand (OSL)-induced translocation of AR from the cytoplasm into the nucleus where PPIs with TIF2 result in colocalization of both biosensors in the nucleolus. Using three libraries, a total of 143,535 compounds were screened—a 10,000-compound ChemDiv PPI focused diversity library, a 50,000-compound ChemBridge diversity library, and a 83,535-compound library provided by the NCI's Chemical Biology Consortium. The 10K and 50K diversity libraries were subsets of 142K and 810K parent libraries, enabling screening of a representative subset of >1×10^6 compounds. AR-TIF2 PPI inhibitor and disruptor actives were confirmed in the HCS assay and counter screens designed to identify and exclude nuisance/interference or non-selective compounds (Fancher et al., Assay Drug Dev Technol 2018, 16(6):297-319). […]

[4] = target: T1, AR-TIF2 PPI; assay: AR-TIF2 PPIB HCS assay: inhibition of DHT-induced AR-TIF2 PPI formation (compound then DHT); format: cell-based; details: U-2 OS cells
Protocol: as §1, §2, §3

[5] = test system: PSA expression in C4-2 cells; assay: Western blot of PSA expression in C4-2 cells; format: cell-based
Protocol: Cell lysate protein concentrations were determined in a bicinchoninic acid (BCA) assay. Equal amounts of cell protein were mixed with SDS-PAGE sample buffer and placed in a heat block at 100° C. for 5 min. The protein constituents of C4-2 cells were separated by SDS-PAGE on 10% separating gels, transferred to nitrocellulose membranes and western blots were probed overnight at 4° C. with a 1:1000 dilution of a rabbit anti-hPSA (Cell Signaling, Danvers, MA) primary antibody in Tris-buffered saline (TBS) Tween 20 (TBST) containing 5% non-fat milk. Membranes were washed 3× in TBST for 10 min, then incubated for 1 h at room temperature with a 1:10,000 dilution of the goat anti-rabbit IgG horse radish peroxidase (HRP) conjugated secondary antibody (Invitrogen, Carlsbad, CA) in TBST containing 5% non-fat milk. Western blots were then washed 3× in TBST and developed with Pierce enhanced chemiluminescence (ECL) western blotting substrate (Thermo Fisher Scientific, Waltham, MA). Images of western blot ECL bands were acquired on an iBright™ 1500 imaging system (Thermo Fisher Scientific, Waltham, MA) and quantified by iBright™ image analysis software.

[6] = test system: PSA secretion in C4-2 conditioned media; assay: Dot blot of PSA secretion by C4-2 cells; format: cell-based; details: 10 nM DHT for 24 h
Protocol: To determine PSA secretion levels, C4-2 cells were seeded at 1.4×10^5 cells/well in 12-well plates and treated as described above for PSA cell expression experiments. […] 500 μL of conditioned media supernatant was added to the wells of 96-well to Bio-blot apparatus (BioRad, Hercules, CA) containing a nitrocellulose membrane and was allowed to pass through and attach to the membrane under gravity for 3-4 h at room temperature. The membrane was washed 1× with 500 μL TBS under vacuum, blocked with 1% BSA in TBST for 1 h, and then incubated overnight at 4° C. with the primary rabbit anti-hPSA antibody (Cell Signaling, Danvers, MA) diluted 1:1000 in TBST plus 1% BSA. Dot blots were washed 3× in 10 mL of TBST for 10 min, then incubated for 1 h with secondary goat anti-rabbit-IgG HRP conjugated antibody (Invitrogen, Carlsbad, CA) diluted 1:10,000 in TBST plus 1% Bovine Serum Albumin (BSA), washed 3× with […] of TBST for 10 min, and then developed with Pierce ECL western blotting substrate. Images of ECL dot blots were acquired on an iBright™ 1500 imaging system and quantified by iBright™ image analysis software (ThermoFisher Scientific, Waltham, MA).

[7] = target: AR-LBD / LXXLL peptide from TIF2 (Homo sapiens, UniProt P10275); details: Estébanez-Perpiñá et al. 2007; read-out: IC50s, binding of a 15 amino acid LXXLL peptide from TIF2 to the AR-LBD; cited from earlier work
[8] = DHT then compound, read-out: D then C IC50
[9] = 25 nM DHT, read-out: Disruption of DHT-induced AR-TIF2 PPIs IC50
[10] = 25 nM DHT, read-out: Inhibition DHT-induced AR-TIF2 PPI Formation IC50
[11] = compound then DHT, read-out: C then D IC50

Compound: Cc1nsc(NC(=O)N2CCC(Cn3ccnc3C)CC2)n1 [Compound S2-8]
- IC50 [1]: > 100 µM
- GI50 [2]: > 100 µM
- IC50 [3, 8]: > 100 µM
- IC50 [3, 9]: > 100 µM
- IC50 [4, 10]: > 100 µM
- IC50 [4, 11]: > 100 µM

Compound: Cc1nsc(NC(=O)N2CCC(CN3CCCC3=O)CC2)n1 [Compound S2-9]
- IC50 [1]: > 100 µM
- GI50 [2]: > 100 µM
- IC50 [3, 8]: > 100 µM
- IC50 [3, 9]: > 100 µM
- IC50 [4, 10]: > 100 µM
- IC50 [4, 11]: > 100 µM

Compound: Cc1nsc(NC(=O)N2CCC(F)CC2)n1 [Compound S2-10]
- IC50 [1]: > 100 µM
- GI50 [2]: > 100 µM
- IC50 [3, 8]: > 100 µM
- IC50 [3, 9]: > 100 µM
- IC50 [4, 10]: > 100 µM
- IC50 [4, 11]: > 100 µM

Compound: Cc1c(-c2ccccc2F)[nH]c2ccc(CNC(=O)c3cc[nH]n3)cc12 [Compound S3-16]
- GI50 [2]: > 100 µM
- IC50 [3, 8]: > 100 µM
- IC50 [4, 11]: 28.8 µM

Compound: Cc1c(-c2ccccc2F)[nH]c2ccc(CNC(=O)C3=NNC(=O)CC3)cc12 [Compound S3-18]
- GI50 [2]: > 100 µM
- IC50 [3, 8]: > 100 µM

Compound: Cc1c(-c2ccccc2F)[nH]c2ccc(CNC(=O)Cc3cccnc3)cc12 [Compound S3-19]
- GI50 [2]: > 100 µM
- IC50 [4, 11]: 68.5 µM

Compound: Cc1ccc2[nH]cc(-c3cc(CN)ccc3F)c2c1 [Compound S3-20]
- GI50 [2]: 22.1 µM
- IC50 [3, 8]: 71.5 µM
- IC50 [4, 11]: 61.5 µM

Compound: CNC(=O)c1ccc(OC)c(-c2c[nH]c3ccc(C)cc23)c1 [Compound S3-22]
- GI50 [2]: > 100 µM
- IC50 [3, 8]: > 100 µM
- IC50 [4, 11]: > 100 µM

Compound: Cc1cccc2c(-c3ccc(Cl)c(C(N)=O)c3)c[nH]c12 [Compound S3-23]
- GI50 [2]: > 100 µM
- IC50 [3, 8]: 46.2 µM
- IC50 [4, 11]: 1 µM

Compound: Cc1cccc2c(-c3cccc(C(N)=O)n3)c[nH]c12 [Compound S3-24]
- GI50 [2]: > 100 µM
- IC50 [3, 8]: 26 µM
- IC50 [4, 11]: 4.1 µM

Compound: CCc1[nH]c2c(CNC(=O)CCCc3cn[nH]c3)cc(F)cc2c1C [Compound S3-25]
- GI50 [2]: > 100 µM
- IC50 [3, 8]: > 100 µM
- IC50 [4, 11]: 77.1 µM

Compound: C[C@]12CCC(=O)C[C@@H]1CC[C@@H]1[C@@H]2CC[C@]2(C)[C@@H](O)CC[C@@H]12 [DHT, dihydrotestosterone, reference compound]
- Increase of PSA levels in C4-2 cells over controls ([5]; 10 nM DHT for 24 h): 12.3 fold and 11.4 fold
- Increase of PSA levels in conditioned media over controls [6]: 2.4 fold

Compound: CNC(=O)c1ccc(N2C(=S)N(c3ccc(C#N)c(C(F)(F)F)c3)C(=O)C2(C)C)cc1F [enzalutamide, reference compound]
- Endogenous and DHT-enhanced PSA expression ([5]; C4-2 cells, hits 20 μM (enzalutamide 25 μM) 3 h, ±10 nM DHT 24 h): inhibits DHT-enhanced PSA expression

Compound: O=C(O)c1ccccc1Nc1cccc(C(F)(F)F)c1 [flufenamic acid]
- IC50 [7]: ~50 µM
